Patent US20260076372A1, “SPRAYABLE ANTIFUNGAL COMPOSITION FOR USE IN THE FIELD OF AGRICULTURE, AND ASSOCIATED METHOD AND USE” (GAIAGO, priority 2022, published 2026)

Key:
Assay type in all cases: cell-based
[1] = tested on: Septoria tritici (Zymoseptoria tritici); experiment: in vitro 96-well micro-titration test on Septoria tritici / Zymoseptoria tritici; settings: for EC95 (%): Z. tritici, Table 23, ingredient alone in water
Alternaria solani = experiment: in vitro 96-well micro-titration test on Alternaria solani spores; settings: for EC95 (%): A. solani, Table 22, ingredient alone in water
Plasmopara viticola = experiment: in vitro antifungal action of single ingredients on Plasmopara viticola
Excerpt: In Vitro Results Showing the Syngergistic Action of Yucca Juice with the Other Compounds of the Composition According to the Invention on A. solani, Z. tritici, and Plasmopara viticola,
The following tables show in vitro the synergistic antifungal action between yucca juice and the other compounds of the composition of the invention on various pathogens. The concentrations given are as a mass %. The solutions tested as aqueous solutions.
Mo denotes sodium molybdate, Bo denotes boron ethanolamine.

[2] = Concentration 0.05% mass of the stated aqueous solution

Row | SMILES | inhibition of Z. tritici, ingredient alone in water ([1]; Concentration 0.05%) [%] | inhibition of Z. tritici, ingredient alone in water ([1]; Concentration 0.50%) [%] | inhibition of Z. tritici, ingredient alone in water ([1]; Concentration 1.00%) [%] | inhibition of Z. tritici, ingredient alone in water ([1]; Concentration 2.00%) [%] | inhibition of Z. tritici, ingredient alone in water ([1]; Concentration 3.00%) [%] | inhibition of Z. tritici, ingredient alone in water ([1]; Concentration 6.00%) [%] | inhibition of Z. tritici, ingredient alone in water ([1]; Concentration 10.00%) [%] | EC95 (%) [1] [%] | EC95 (%) (Alternaria solani) | inhibition of A. solani, ingredient alone in water (Alternaria solani; [2]) [%] | inhibition of A. solani, ingredient alone in water (Alternaria solani; Concentration 0.50%) [%] | inhibition of A. solani, ingredient alone in water (Alternaria solani; Concentration 1.00%) [%] | inhibition of A. solani, ingredient alone in water (Alternaria solani; Concentration 2.00%) [%] | inhibition of A. solani, ingredient alone in water (Alternaria solani; Concentration 3.00%) [%] | inhibition of A. solani, ingredient alone in water (Alternaria solani; Concentration 6.00%) [%] | inhibition of A. solani, ingredient alone in water (Alternaria solani; Concentration 10.00%) [%] | in vitro activity against Plasmopara viticola, ingredient alone in water (Plasmopara viticola; Concentration 0.05%) [%] | in vitro activity against Plasmopara viticola, ingredient alone in water (Plasmopara viticola; Concentration 0.50%) [%] | in vitro activity against Plasmopara viticola, ingredient alone in water (Plasmopara viticola; Concentration 1.00%) [%] | in vitro activity against Plasmopara viticola, ingredient alone in water (Plasmopara viticola; Concentration 2.00%) [%] | also measured
1 | O=S(=O)([O-])[O-].[Cu+2] [Cu 1.5%] | 11.9 | 17.3 | 22.1 | 23.6 | 20.9 | 24.1 | 28.2 | >10 | >10 | −2.8 | −1.4 | −1.9 | −1.8 | −4.9 | −1.8 | −2.9 | – | – | – | – | –
2 | O=S(=O)([O-])[O-].[Fe+2] [Fe 4%] | 9.8 | 37.1 | 38.8 | 54.9 | 100.0 | 100.0 | 100.0 | 2.86 | 2.3 | −4.7 | −4.3 | −0.4 | 49.6 | 100.0 | 100.0 | 100.0 | – | – | – | – | efficacy against Z. tritici (glume blotch) in vitro ([1]; dose of 0.5%): ~37%
3 | [Cl-].[K+] [KCl 0.24%] | 4.7 | 2.2 | 1.4 | 0.1 | 0.3 | 7.9 | 3.8 | >10 | >10 | 1.2 | −3.6 | −3.9 | −8.9 | −1.3 | −1.2 | −2.9 | 10.83 | 51.35 | 69.10 | 75.81 | in vitro activity against Plasmopara viticola, ingredient alone in water (Plasmopara viticola; Concentration 3.00%): 83.20%; in vitro activity against Plasmopara viticola, ingredient alone in water (Plasmopara viticola; Concentration 6.00%): 94.91%; in vitro activity against Plasmopara viticola, ingredient alone in water (Plasmopara viticola; Concentration 10.00%): 97.43%
4 | O=S(=O)([O-])[O-].[Mg+2] [Mg 0.5%] | 0.7 | 0.9 | 2.3 | −2.9 | −0.1 | 11.3 | – | >10 | >10 | −1.2 | −8.0 | −2.2 | −1.8 | −1.3 | −2.5 | −2.4 | 13.88 | 43.93 | 53.33 | 69.80 | in vitro activity against Plasmopara viticola, ingredient alone in water (Plasmopara viticola; Concentration 3.00%): 76.51%; in vitro activity against Plasmopara viticola, ingredient alone in water (Plasmopara viticola; Concentration 6.00%): 91.75%; in vitro activity against Plasmopara viticola, ingredient alone in water (Plasmopara viticola; Concentration 10.00%): 95.94%
5 | O=S(=O)([O-])[O-].[Mn+2] [Mn 3.7%] | 12.9 | 13.8 | 12.9 | 18.6 | 20.0 | 17.0 | 23.1 | >10 | >10 | −2.3 | 0.0 | 12.8 | 15.1 | 17.6 | 38.8 | 48.4 | 31.02 | 87.05 | 94.13 | 97.24 | in vitro activity against Plasmopara viticola, ingredient alone in water (Plasmopara viticola; Concentration 3.00%): 97.70%; in vitro activity against Plasmopara viticola, ingredient alone in water (Plasmopara viticola; Concentration 6.00%): 97.72%; in vitro activity against Plasmopara viticola, ingredient alone in water (Plasmopara viticola; Concentration 10.00%): 97.79%
